Measured values taken from the NIST ThermoML archive (doi:10.1021/je200637v).
Numbers after ± are expanded uncertainties.

Test: activity coefficient (dimensionless); of the first substance listed, at infinite dilution; xn = mol fraction of the nth substance listed
Details: Liquid, Chromatography, x1 = 0

SMILES | activity coefficient (322.85 K) | activity coefficient (332.65 K) | activity coefficient (343.15 K)
CCC=O [propanal] + CCCCCCCCCC[N+](C)(C)C.O=S(=O)([N-]S(=O)(=O)C(F)(F)F)C(F)(F)F | 0.4 ± 0.03 | 0.42 ± 0.03 | 0.41 ± 0.03
CCC=O [propanal] + CCCCCCCC[N+](C)(C)C.O=S(=O)([N-]S(=O)(=O)C(F)(F)F)C(F)(F)F | 0.48 ± 0.03 | 0.47 ± 0.03 | 0.46 ± 0.03
CCC=O [propanal] + CCCCCCCC[N+](CCCCCCCC)(CCCCCCCC)CCCCCCCC.O=S(=O)([N-]S(=O)(=O)C(F)(F)F)C(F)(F)F | 0.25 ± 0.04 | 0.35 ± 0.04 | 0.35 ± 0.04
CCC=O [propanal] + CCCC[N+](C)(CCCC)CCCC.O=S(=O)([N-]S(=O)(=O)C(F)(F)F)C(F)(F)F | 0.49 ± 0.03 | 0.49 ± 0.03 | 0.5 ± 0.03
c1ccncc1 [pyridine] + CCCCCCCCCC[N+](C)(C)C.O=S(=O)([N-]S(=O)(=O)C(F)(F)F)C(F)(F)F | 0.46 ± 0.03 | 0.47 ± 0.03 | 0.47 ± 0.03
c1ccncc1 [pyridine] + CCCCCCCC[N+](C)(C)C.O=S(=O)([N-]S(=O)(=O)C(F)(F)F)C(F)(F)F | 0.45 ± 0.03 | 0.44 ± 0.03 | 0.43 ± 0.03
c1ccncc1 [pyridine] + CCCCCCCC[N+](CCCCCCCC)(CCCCCCCC)CCCCCCCC.O=S(=O)([N-]S(=O)(=O)C(F)(F)F)C(F)(F)F | 0.33 ± 0.04 | 0.33 ± 0.04 | 0.34 ± 0.04
c1ccncc1 [pyridine] + CCCC[N+](C)(CCCC)CCCC.O=S(=O)([N-]S(=O)(=O)C(F)(F)F)C(F)(F)F | 0.55 ± 0.03 | 0.56 ± 0.03 | 0.56 ± 0.03
ClC(Cl)(Cl)Cl [tetrachloromethane] + CCCCCCCCCC[N+](C)(C)C.O=S(=O)([N-]S(=O)(=O)C(F)(F)F)C(F)(F)F | 1.46 ± 0.06 | 1.5 ± 0.06 | 1.47 ± 0.06
ClC(Cl)(Cl)Cl [tetrachloromethane] + CCCCCCCC[N+](C)(C)C.O=S(=O)([N-]S(=O)(=O)C(F)(F)F)C(F)(F)F | 1.63 ± 0.07 | 1.63 ± 0.07 | 1.6 ± 0.06
ClC(Cl)(Cl)Cl [tetrachloromethane] + CCCCCCCC[N+](CCCCCCCC)(CCCCCCCC)CCCCCCCC.O=S(=O)([N-]S(=O)(=O)C(F)(F)F)C(F)(F)F | 0.63 ± 0.03 | 0.64 ± 0.03 | 0.64 ± 0.03
ClC(Cl)(Cl)Cl [tetrachloromethane] + CCCC[N+](C)(CCCC)CCCC.O=S(=O)([N-]S(=O)(=O)C(F)(F)F)C(F)(F)F | 2.11 ± 0.1 | 2.11 ± 0.1 | 2.07 ± 0.09
c1ccsc1 [thiophene] + CCCCCCCCCC[N+](C)(C)C.O=S(=O)([N-]S(=O)(=O)C(F)(F)F)C(F)(F)F | 0.65 ± 0.03 | 0.7 ± 0.03 | 0.68 ± 0.03
c1ccsc1 [thiophene] + CCCCCCCC[N+](C)(C)C.O=S(=O)([N-]S(=O)(=O)C(F)(F)F)C(F)(F)F | 0.69 ± 0.03 | 0.69 ± 0.03 | 0.69 ± 0.03
c1ccsc1 [thiophene] + CCCCCCCC[N+](CCCCCCCC)(CCCCCCCC)CCCCCCCC.O=S(=O)([N-]S(=O)(=O)C(F)(F)F)C(F)(F)F | 0.4 ± 0.03 | 0.4 ± 0.03 | 0.41 ± 0.03
c1ccsc1 [thiophene] + CCCC[N+](C)(CCCC)CCCC.O=S(=O)([N-]S(=O)(=O)C(F)(F)F)C(F)(F)F | 0.86 ± 0.03 | 0.88 ± 0.03 | 0.87 ± 0.03
Cc1ccccc1 [toluene] + CCCCCCCCCC[N+](C)(C)C.O=S(=O)([N-]S(=O)(=O)C(F)(F)F)C(F)(F)F | 0.84 ± 0.03 | 0.89 ± 0.03 | 0.89 ± 0.03
Cc1ccccc1 [toluene] + CCCCCCCC[N+](C)(C)C.O=S(=O)([N-]S(=O)(=O)C(F)(F)F)C(F)(F)F | 0.97 ± 0.03 | 0.98 ± 0.03 | 0.98 ± 0.03
Cc1ccccc1 [toluene] + CCCCCCCC[N+](CCCCCCCC)(CCCCCCCC)CCCCCCCC.O=S(=O)([N-]S(=O)(=O)C(F)(F)F)C(F)(F)F | 0.47 ± 0.03 | 0.48 ± 0.03 | 0.49 ± 0.03
Cc1ccccc1 [toluene] + CCCC[N+](C)(CCCC)CCCC.O=S(=O)([N-]S(=O)(=O)C(F)(F)F)C(F)(F)F | 1.13 ± 0.03 | 1.19 ± 0.04 | 1.19 ± 0.04
ClC(Cl)Cl [trichloromethane] + CCCCCCCCCC[N+](C)(C)C.O=S(=O)([N-]S(=O)(=O)C(F)(F)F)C(F)(F)F | 0.65 ± 0.03 | 0.68 ± 0.03 | 0.68 ± 0.03
ClC(Cl)Cl [trichloromethane] + CCCCCCCC[N+](C)(C)C.O=S(=O)([N-]S(=O)(=O)C(F)(F)F)C(F)(F)F | 0.63 ± 0.03 | 0.65 ± 0.03 | 0.66 ± 0.03
